Patent US20180125816A1, “SAROGLITAZAR MAGNESIUM FOR THE TREATMENT OF CHYLOMICRONEMIA SYNDROME” (CADILA HEALTHCARE LIMITED, priority 2015, published 2018)

What was measured:
Zucker fa/fa rats [1] = test: Severe hypertriglyceridemia induced by Triton WR-1339 (inhibition of LPL) in Zucker fa/fa rats, serum triglycerides; assay type: in vivo, rat; conditions: for % Change in AUC-TG vs Vehicle Control: AUC 0-48 hr; for reduction in serum triglycerides (TG): 0-hr time point, after repeat dose treatment
Description: The obese Zucker (fatty) rat is one of the oldest models of NIDDM, resembling human type II diabetes, i.e. diabetes associated with obesity. It is characterized by hyperphagia and associated with mild hyperglycaemia, insulin resistance, mild glucose intolerance, hyperlipidaemia specially hypertriglyceridemia. When the non-ionic detergent Triton WR-1339 is injected into Zucker fa/fa rats, there is a progressive accumulation of triacylglycerols in the plasma/serum (Friedman & Byers, 1953; Otway & Robinson, 1967). […] So the nonionic detergent, Triton WR-1339 (Triton), has commonly been used to inhibit LPL for this purpose to produce the condition of severe hypertriglyceridemia similar to familial chylomicronemia syndrome and Type V hyperlipoproteinemia.
In this study 20 male and 14 female Zucker fa/fa rats of 6-10 weeks of age were selected for the and on day-0, body weight of animals recorded and blood samples (approximately 80 μl to 90 μl) was collected via retro orbital route using isoflurane as inhalation anaesthesia, serum separated and serum triglyceride estimated and 24 animals were selected and grouped on the basis of serum triglyceride level as primary parameter as below
From hyphen or day-1 to Day-14, compounds were formulated in 5% PEG+5% Tween 80+90% (0.5%) Na-CMC in such, a way that the final volume of administration was 2 ml/kg of body wt, and animals were dosed orally once daily as per grouping details.
On day-14 blood samples were collected after 1 hour of dosing, serum separated and serum triglycerides (TG) was estimated. Animals were being kept on 24 hours fasting after completion of day-14 activities. On day-15, after 24 hours of fasting, body wt. of all animals was recorded. Then formulations of treatment items were prepared in vehicle and Triton WR-1339 prepared in 0.9% saline for intraperitoneal injection at dose of 250 mg/kg per 5 ml. Basal blood samples collected and animals were administered orally with respective treatment and immediately injected intraperitoneally with Triton WR-1339. Blood samples (approx, 1 ml per sample) were also collected at 6 hr, 24 hours and 48 hours after triton administration and serum triglycerides levels were estimated using Cobas C 311 clinical chemistry autoanalyser from Roche Diagnostics using commercial diagnostic kits.
% change at 6-hr, 24-hr and 48-hr for TG vs Vehicle Control was calculated using MS using MS Excel. The area under curve for TG, AUC-TG (0-48), was calculated using Graph Pad® software.

Zucker fa/fa rats [2] = test: Fatty tolerance test with 13C-palmitate/corn oil after 14 days repeated dosing: hyper-chylomicronemia and chylomicron dynamics; assay type: in vivo, rat; conditions: for 13C Palmitate / Palmitate total: adipose tissue
Description: In this study, the effect of Compound (1) on hyper-chylomicronemia and chylomicron dynamics in Zucker fa/fa rats after 14 days repeated dose administration was evaluated.
Zucker (fa/fa) fatty rat of 7-8 weeks of age were purchased from Charles River Laboratory and single-housed under a pathogen free environment with constant room temperature (20-22° C.) and relative humidity (40-50%) and a 6:00 pm-6:00 am dark-light cycle. Rats were provided with free access to food (Lab Diet 5L0D, an irradiated regular rodent diet containing 23% of protein and 4.5% of fat) and water. Initial body weight and body composition (using a NMR analyzer) were measured 6 days post-arrival. The rats were then randomly divided into four dosing groups based BW and fat mass as below—
Dosing was begun at 9-10 weeks of age, once daily (8-10 am) by oral gavage for 14 days. On the day-14 of dosing, a final body composition (after dosing) was measured. On day-15, all animals were given a fatty tolerance test (FTT) after being fasted overnight (15-16 hours), followed by blood and tissue collection.
Fatty Tolerance Test Procedure (FTT): • 1. Following an overnight fast, rats were orally gavaged with a mixture of ^13C-Palmitic Acid (1 and corn oil (1 g of^13C-P dissolved in 5 ml of corn oil) at 5 ml/kg·bw. • 2. Blood samples were collected via tail vein bleeding using 3×300 ul EDTA tubes at the following time points:
0 hour (initial), 1 hour, 2 hour, 3 hour, 4 hour, 5 hour, 6 hour, 8 hour
After the 8 hour bleeding, rats were knocked down in a drop jar using isoflurane. Once sedated, the rats were hooked up to a Midmark Matrx Anesthesia isoflurane machine that dispensed isoflurane vapor at […] with an oxygen flow rate of 1 L/min. Organs and tissues were dissected and frozen immediately in liquid nitrogen and stored at −80° C. LCMS and GCMS were used to assess the incorporation of ^13C lipids into plasma and tissue lipids (n=5 for tissue metabolomics studies).

Compound: CCO[C@@H](Cc1ccc(OCCn2c(C)ccc2-c2ccc(SC)cc2)cc1)C(=O)O [Compound (1), Saroglitazar Magnesium]
- reduction in AUC-TG Vs Vehicle control group (Zucker fa/fa rats [1]; 1 mg/kg): 48%
- AUC-TG (0-48 hr.) (Zucker fa/fa rats [1]; 1 mg/kg p.o. once daily): 54241.5 ± 11182.3 mg·h/dL
- Serum Triglycerides after Triton WR-1339 administration (Zucker fa/fa rats [1]; 1 mg/kg p.o. once daily, 0 hr): 188.3 ± 15.6 mg/dL
- Serum Triglycerides after Triton WR-1339 administration (Zucker fa/fa rats [1]; 1 mg/kg p.o. once daily, 6 hr): 438.5 ± 52.7 mg/dL
- Serum Triglycerides after Triton WR-1339 administration (Zucker fa/fa rats [1]; 1 mg/kg p.o. once daily, 24 hr): 1797.2 ± 331.3 mg/dL
- Serum Triglycerides after Triton WR-1339 administration (Zucker fa/fa rats [1]; 1 mg/kg p.o. once daily, 48 hr): 889.5 ± 353.9 mg/dL
- % Change in TG Vs Vehicle Control (Zucker fa/fa rats [1]; 1 mg/kg p.o., 0 hr after Triton WR-1339): −63.7 ± 3.0%
- % Change in TG Vs Vehicle Control (Zucker fa/fa rats [1]; 1 mg/kg p.o., 6 hr after Triton WR-1339): −43.6 ± 6.8%
- % Change in TG Vs Vehicle Control (Zucker fa/fa rats [1]; 1 mg/kg p.o., 24 hr after Triton WR-1339): −44.7 ± 10.2%
- % Change in TG Vs Vehicle Control (Zucker fa/fa rats [1]; 1 mg/kg p.o., 48 hr after Triton WR-1339): −59.1 ± 16.3%
- % Change in AUC-TG vs Vehicle Control (Zucker fa/fa rats [1]; 1 mg/kg p.o.): −48.4 ± 10.6%
- reduction in serum triglycerides (TG) (Zucker fa/fa rats [1]; 1 mg/kg): 64%
- reduction in AUC-TG Vs Vehicle control group (Zucker fa/fa rats [1]; 10 mg/kg): 63%
- AUC-TG (0-48 hr.) (Zucker fa/fa rats [1]; 10 mg/kg p.o. once daily): 39050.3 ± 6922.7 mg·h/dL
- Serum Triglycerides after Triton WR-1339 administration (Zucker fa/fa rats [1]; 10 mg/kg p.o. once daily, 0 hr): 93.2 ± 7.9 mg/dL
- Serum Triglycerides after Triton WR-1339 administration (Zucker fa/fa rats [1]; 10 mg/kg p.o. once daily, 6 hr): 328.9 ± 111.9 mg/dL
- Serum Triglycerides after Triton WR-1339 administration (Zucker fa/fa rats [1]; 10 mg/kg p.o. once daily, 24 hr): 1463.8 ± 265.3 mg/dL
- Serum Triglycerides after Triton WR-1339 administration (Zucker fa/fa rats [1]; 10 mg/kg p.o. once daily, 48 hr): 340.4 ± 151.7 mg/dL
- % Change in TG Vs Vehicle Control (Zucker fa/fa rats [1]; 10 mg/kg p.o., 0 hr after Triton WR-1339): −82.0 ± 1.5%
- % Change in TG Vs Vehicle Control (Zucker fa/fa rats [1]; 10 mg/kg p.o., 6 hr after Triton WR-1339): −57.7 ± 14.4%
- % Change in TG Vs Vehicle Control (Zucker fa/fa rats [1]; 10 mg/kg p.o., 48 hr after Triton WR-1339): −84.3 ± 7.0%
- % Change in AUC-TG vs Vehicle Control (Zucker fa/fa rats [1]; 10 mg/kg p.o.): −62.9 ± 6.6%
- reduction in serum triglycerides (TG) (Zucker fa/fa rats [1]; 10 mg/kg): 82%
- lowering of TG levels (in words) (Zucker fa/fa rats [1]; 1 and 10 mg/kg, all time points after Triton WR-1339): dose dependent lowering of TG levels at all-time points
- blunting an increase in serum triglycerides (in words) (Zucker fa/fa rats [1]; compared to fenofibrate): significantly effective in blunting an increase in serum triglycerides
- plasma triglyceride (TG) in FTT (in words) (Zucker fa/fa rats [2]; 0 and 2 hour post corn oil treatment): significantly reduced plasma triglyceride (TG)
- % Change in 13C Palmitate uptake in adipose tissue Vs Vehicle Control (Zucker fa/fa rats [2]; 0.4 mg/kg p.o.): 86%
- Plasma TG in FTT (Zucker fa/fa rats [2]; 0.4 mg/kg p.o. 14 days, 0 min): 330.5 ± 39.2 mg/dL
- Plasma TG in FTT (Zucker fa/fa rats [2]; 0.4 mg/kg p.o. 14 days, 120 min): 389.2 ± 21.8 mg/dL
- 13C Palmitate (Zucker fa/fa rats [2]; 0.4 mg/kg p.o.): 6.20 ± 0.89 Nanomole/mg protein
- Palmitate total (Zucker fa/fa rats [2]; 0.4 mg/kg p.o.): 7.14 ± 0.30 micromole/mg protein
- % Change in 13C Palmitate uptake in adipose tissue Vs Vehicle Control (Zucker fa/fa rats [2]; 4 mg/kg p.o.): 247%
- Plasma TG in FTT (Zucker fa/fa rats [2]; 4 mg/kg p.o. 14 days, 0 min): 84.7 ± 9.3 mg/dL
- Plasma TG in FTT (Zucker fa/fa rats [2]; 4 mg/kg p.o. 14 days, 120 min): 171.3 ± 28.2 mg/dL
- 13C Palmitate (Zucker fa/fa rats [2]; 4 mg/kg p.o.): 11.57 ± 0.73 Nanomole/mg protein
- Palmitate total (Zucker fa/fa rats [2]; 4 mg/kg p.o.): 6.60 ± 0.29 micromole/mg protein
- fasting and postprandial TG levels (in words) (Zucker fa/fa rats [2]; conclusion of the study): significantly reduces fasting and postprandial TG levels
- increase in accumulation of M+16 palmitate in adipose tissue (Zucker fa/fa rats [2]; high dose (4 mg/kg)): 247%
- appearance of M+16 TG species TG (52:3) and TG (52:4) in plasma (in words) (Zucker fa/fa rats [2]; low (0.4 mg/kg) and high (4 mg/kg) dose): significantly attenuated the appearance of M+16 TG
- gastrocnemius M+16 palmitate labeling (in words) (Zucker fa/fa rats [2]; low and high dose (0.4 and 4 mg/kg)): decreased gastrocnemius M+16 palmitate labeling
- increase in accumulation of M+16 palmitate in adipose tissue (Zucker fa/fa rats [2]; low dose (0.4 mg/kg)): 86%

Compound: CC(C)OC(=O)C(C)(C)Oc1ccc(C(=O)c2ccc(Cl)cc2)cc1 [Fenofibrate, reference compound]
- reduction in AUC-TG Vs Vehicle control group (Zucker fa/fa rats [1]; 65 mg/kg): 11%
- AUC-TG (0-48 hr.) (Zucker fa/fa rats [1]; 65 mg/kg p.o. once daily): 93412.8 ± 12023.5 mg·h/dL
- Serum Triglycerides after Triton WR-1339 administration (Zucker fa/fa rats [1]; 65 mg/kg p.o. once daily, 0 hr): 324.9 ± 45.3 mg/dL
- Serum Triglycerides after Triton WR-1339 administration (Zucker fa/fa rats [1]; 65 mg/kg p.o. once daily, 6 hr): 1048.1 ± 147.4 mg/dL
- Serum Triglycerides after Triton WR-1339 administration (Zucker fa/fa rats [1]; 65 mg/kg p.o. once daily, 24 hr): 2871.5 ± 357.4 mg/dL
- Serum Triglycerides after Triton WR-1339 administration (Zucker fa/fa rats [1]; 65 mg/kg p.o. once daily, 48 hr): 1630.0 ± 329.8 mg/dL
- % Change in TG Vs Vehicle Control (Zucker fa/fa rats [1]; 65 mg/kg p.o., 0 hr after Triton WR-1339): −37.4 ± 8.7%
- % Change in TG Vs Vehicle Control (Zucker fa/fa rats [1]; 65 mg/kg p.o., 6 hr after Triton WR-1339): 34.9 ± 19.0%
- % Change in TG Vs Vehicle Control (Zucker fa/fa rats [1]; 65 mg/kg p.o., 48 hr after Triton WR-1339): −25.0 ± 15.2%
- % Change in 13C Palmitate uptake in adipose tissue Vs Vehicle Control (Zucker fa/fa rats [2]; 150 mg/kg p.o.): −14%
- Plasma TG in FTT (Zucker fa/fa rats [2]; 150 mg/kg p.o. 14 days, 120 min): 502.2 ± 8.1 mg/dL
- 13C Palmitate (Zucker fa/fa rats [2]; 150 mg/kg p.o.): 2.88 ± 0.57 Nanomole/mg protein
- Palmitate total (Zucker fa/fa rats [2]; 150 mg/kg p.o.): 6.90 ± 0.24 micromole/mg protein
